Results reported in US9427429B2, “Cancer diagnosis and imaging” (Tau Therapeutics LLC, priority 2010, dated 2016).

Tests used:
Format in all cases: cell-based
[1] = test system: A10 cells; assay: Cell cycle analysis by flow cytometry and BUdR staining, with nocodazole block; conditions: for cell cycle arrest point: A10 cells treated 24 hours with T channel blocker before adding nocodazole, FIG. 3
Procedure: Cell cycle analysis was performed using flow cytometry and BUdR staining. In FIG. 3, “Con” represents untreated, control cells. All other cell cultures were treated with nocodazole, which interferes with microtubule polymerization and blocks the cell cycle during M phase. […] Therefore, cell cultures were treated for 24 hours with T channel calcium channel blockers mibefradil (mib), nickel (Ni) or TTL-1177 (a proprietary compound owned by the assignee Tau Therapeutics), before adding nocodazole.

[2] = test system: human prostate cancer cells of cell line PC3; assay: Effect of mibefradil on the cell cycle of PC3 cells; conditions: PC3, 5 μM or 10 μM for 24 hours or 48 hours; effect of increasing concentration and contact time; FIG. 5
Procedure: To measure the effect of mibefradil on the cell cycle of human prostate cancer cells of cell line PC3, PC3 cells were incubated with varying concentrations of mibefradil for varying times. The PC3 cells were incubated with either a 5 μM concentration or a 10 μM concentration for either 24 hours or 48 hours.

[3] = test system: human prostate cancer cells; assay: Cell cycle progression after mibefradil incubation, prostate cancer cells
Procedure: (§1) To measure the efficacy of the cell cycle inhibitor mibefradil at stopping progression through the cell cycle, human lung cancer cells of cell line A549 and human prostate cancer cells of cell line were incubated with 10 μM mibefradil for 48 hours (M48H). […] Further data was collected by incubating the same cell lines with 10 μM of mibefradil for 18 hours followed by a 12 hour washout followed by another […] incubation with mibefradil (M18-12-18h).

[4] = test system: human lung cancer cells of cell line A549; assay: Cell cycle progression after mibefradil incubation, A549
Procedure: as §1

[5] = test system: Human colon cancer cells, cell line HT29; assay: Uptake of imaging marker FDG after mibefradil, HT29; conditions: FDG 60 minutes after removal
Procedure: The efficacy of the uptake of imaging markers after treatment with a cell cycle inhibitor was determined. Human colon cancer cells, cell line HT29, were first incubated for 24 hours with the cell cycle inhibitor mibefradil at concentrations of 5 μM (5 uM-FDG-HT29) and 10 μM (10 uM-FDG-HT29). After 24 hours of incubation with the mibefradil, the HT29 cells were removed from mibefradil contact. After 60 minutes of being removed from mibefradil contact, the imaging marker 2-deoxy-2-(^18F)fluoro-D-glucose (hereinafter, “FDG”) was administered.
With a concentration of 10 μM of mibefradil, the increase in uptake of FDG was about 100% as compared to uptake of cells not incubated with mibefradil.

[6] = test system: human lung cancer cells of cell line A549; assay: Uptake of imaging marker 3H-FDG after mibefradil, A549; conditions: 3H-FDG 30 minutes after removal
Procedure: (§2) The uptake of an imaging marker was also determined in human lung cancer cells of cell line A549. A549 cells were incubated with 5 μM, 10 μM and 15 μM concentrations of the cell cycle inhibitor mibefradil for 24 hours. After 24 hours of incubation with the mibefradil, the A549 cells were removed from mibefradil contact. After 30 minutes of being removed from mibefradil contact, the imaging marker tritiated FDG (hereinafter “3H-FDG”) was administered. […] Although not shown, incubation of human prostate cancer cells of the PC3 cell line with 10 μM mibefradil for 72 hours increased uptake of the subsequently introduced imaging marker 3H-FDG by about 60%.

[7] = test system: human prostate cancer cells of the PC3 cell line; assay: Uptake of imaging marker 3H-FDG after mibefradil, PC3; conditions: PC3, 10 μM mibefradil for 72 hours; data not shown
Procedure: as §2

Row | Compound | cell cycle arrest point [1] | cell cycle block ([1]; A10 cells, nocodazole alone, flow cytometry) | proportion of cells in the G1 phase [2] | proportion of cells in the G1 phase vs control ([3]; 10 μM for 18 hours, 12 hour washout, another 8 hour incubation (M18-12-18h)) | proportion of cells in the G1 phase ([3]; 10 μM mibefradil for 48 hours (M48H), FIG. 4) | proportion of cells in the G1 phase vs control ([4]; A549, 10 μM for 18 hours, 12 hour washout, another 8 hour incubation (M18-12-18h)) | proportion of cells in the G1 phase ([4]; A549, 10 μM mibefradil for 48 hours (M48H), FIG. 4) | uptake of the imaging marker FDG vs cells not incubated ([5]; HT29, 5 μM and 10 μM mibefradil 24 hours, FIG. 6) | increase in uptake of FDG vs cells not incubated ([5]; HT29, 10 μM mibefradil 24 hours) | uptake of 3H-FDG ([6]; A549, 5 μM, 10 μM and 15 μM mibefradil 24 hours, FIG. 7) | mibefradil concentration of maximal 3H-FDG uptake ([6]; A549, 24 hours incubation, 5, 10, 15 μM tested) [µM] | increase in uptake of 3H-FDG [7]
1 | [Ni] [nickel] | arrested cells at the cell cycle checkpoint between G0 and G1 | – | – | – | – | – | – | – | – | – | – | –
2 | COC(=O)Nc1nc2ccc(C(=O)c3cccs3)cc2[nH]1 [nocodazole] | – | blocked cell cycle transit through M phase | – | – | – | – | – | – | – | – | – | –
3 | COCC(=O)O[C@]1(CCN(C)CCCc2nc3ccccc3[nH]2)CCc2cc(F)ccc2[C@@H]1C(C)C [mibefradil] | arrested cells at the cell cycle checkpoint between G0 and G1 | – | increases the proportion of cells in the G1 phase | greater proportion of cells in the G1 phase | increased the proportion of cells in the G1 phase | greater proportion of cells in the G1 phase | increased the proportion of cells in the G1 phase | increased | about 100% | increase in uptake being observed at all concentrations | 5 | about 60%
